Data taken from patent US20230365537A1, “POLO LIKE KINASE 4 INHIBITORS” (ORIC Pharmaceuticals, Inc., priority 2021, published 2023).

Experiments:
human recombinant PLK4 = human recombinant PLK4 (Homo sapiens (Human), UniProt O00444); experiment: PLK4 Biochemical Assay (ADP-Glo); details: 0.5 nM PLK4, 8.0 µM ATP, 4.7 µM MBP, 6 hours at RT
Procedure, shortened: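 Recombinant human PLK4 (added at 1.0 nM) was preincubated 15 min at RT with compound in 50 mM HEPES pH 7.5, 10 mM MgCl2, 1 mM EGTA, 1 mM DTT, 0.01% Brij-35, 0.01% BSA. ADP formed was detected by ADP-Glo luminescence (40 min ATP depletion, 30 min detection). IC50 came from a four-parameter fit.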

[1] = biological target: human recombinant Aurora A (Homo sapiens (Human), UniProt O14965); experiment: Aurora A Kinase Biochemical Assay (ADP-Glo); details: ratio of Aurora A IC50 to PLK4 IC50 (selectivity)
[2] = biological target: human recombinant Aurora B (Homo sapiens (Human), UniProt Q96GD4); experiment: Aurora B Kinase Biochemical Assay (ADP-Glo); details: ratio of Aurora B IC50 to PLK4 IC50 (selectivity)
Procedure, shortened: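 Recombinant human Aurora B (20 nM in pH 7.5 HEPES buffer with MgCl2, EGTA, DTT, Brij-35, BSA) preincubated with compound 15 min at RT. ADP formed quantified by ADP-Glo luminescence after ATP depletion (40 min) and detection (30 min). IC50 from four-parameter non-linear regression.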

Chain of human recombinant Aurora A (O14965 whole entry): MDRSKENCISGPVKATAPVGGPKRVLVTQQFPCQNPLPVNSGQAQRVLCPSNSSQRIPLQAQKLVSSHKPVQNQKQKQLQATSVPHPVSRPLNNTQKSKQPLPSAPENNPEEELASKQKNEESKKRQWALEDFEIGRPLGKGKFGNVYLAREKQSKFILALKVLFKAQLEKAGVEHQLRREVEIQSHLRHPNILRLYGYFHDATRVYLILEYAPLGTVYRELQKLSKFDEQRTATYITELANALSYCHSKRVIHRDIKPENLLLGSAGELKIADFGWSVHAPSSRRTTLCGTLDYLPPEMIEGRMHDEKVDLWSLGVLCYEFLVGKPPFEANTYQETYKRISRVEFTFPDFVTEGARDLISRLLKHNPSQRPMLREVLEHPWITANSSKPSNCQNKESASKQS
Chain of human recombinant Aurora B (Q96GD4 whole entry): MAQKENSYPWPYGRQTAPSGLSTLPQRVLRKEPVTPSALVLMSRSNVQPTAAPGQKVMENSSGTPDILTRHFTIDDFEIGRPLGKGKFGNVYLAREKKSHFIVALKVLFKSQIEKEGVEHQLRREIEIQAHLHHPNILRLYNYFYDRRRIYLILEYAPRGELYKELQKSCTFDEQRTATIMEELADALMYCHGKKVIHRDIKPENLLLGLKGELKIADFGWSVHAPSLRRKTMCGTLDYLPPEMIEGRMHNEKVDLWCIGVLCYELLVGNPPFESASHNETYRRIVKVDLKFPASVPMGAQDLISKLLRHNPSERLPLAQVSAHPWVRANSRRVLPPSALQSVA
Chain of human recombinant PLK4 (O00444 whole entry): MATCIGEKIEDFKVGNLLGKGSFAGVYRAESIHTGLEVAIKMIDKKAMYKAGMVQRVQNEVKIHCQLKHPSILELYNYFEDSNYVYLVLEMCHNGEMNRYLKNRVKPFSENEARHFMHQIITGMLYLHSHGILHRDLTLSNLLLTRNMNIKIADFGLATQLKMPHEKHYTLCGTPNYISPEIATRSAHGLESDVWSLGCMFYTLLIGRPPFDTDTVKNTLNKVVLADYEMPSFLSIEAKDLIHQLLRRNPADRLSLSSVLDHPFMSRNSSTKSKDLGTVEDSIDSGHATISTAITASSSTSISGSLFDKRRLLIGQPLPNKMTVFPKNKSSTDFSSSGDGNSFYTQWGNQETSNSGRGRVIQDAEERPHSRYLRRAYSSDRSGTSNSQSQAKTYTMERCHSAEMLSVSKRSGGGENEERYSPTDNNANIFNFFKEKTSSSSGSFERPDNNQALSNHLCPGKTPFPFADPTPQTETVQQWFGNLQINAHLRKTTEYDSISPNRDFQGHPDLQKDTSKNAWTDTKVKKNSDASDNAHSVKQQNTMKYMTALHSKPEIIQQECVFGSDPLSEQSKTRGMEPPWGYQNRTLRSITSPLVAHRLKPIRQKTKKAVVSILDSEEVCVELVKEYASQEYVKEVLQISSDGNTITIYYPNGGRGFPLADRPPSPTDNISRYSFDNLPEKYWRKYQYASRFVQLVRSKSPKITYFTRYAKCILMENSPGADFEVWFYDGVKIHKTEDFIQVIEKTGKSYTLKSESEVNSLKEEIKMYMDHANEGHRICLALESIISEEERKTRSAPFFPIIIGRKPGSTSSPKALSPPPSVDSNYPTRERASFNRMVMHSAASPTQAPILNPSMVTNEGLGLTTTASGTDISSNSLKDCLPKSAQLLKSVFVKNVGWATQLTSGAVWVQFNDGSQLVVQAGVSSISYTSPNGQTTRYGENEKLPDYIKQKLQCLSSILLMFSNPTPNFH

SMILES	IC50 (human recombinant PLK4) [nM]	[Aurora A IC50 (nM)]/[PLK4 IC50 (nM)] [1]	[Aurora B IC50 (nM)]/[PLK4 IC50 (nM)] [2]
CCn1nc(C2CC2)cc1Nc1n[nH]c2cc([C@@H]3C[C@@]34C(=O)Nc3ccc(OC)cc34)ccc12 [Example 92, (1R,2S)-2-{3-[(3-cyclopropyl-1-ethyl-1H-pyrazol-5-yl)amino]-1H-indazol-6-yl}-5′-methoxyspiro[cyclopropane-1,3′-indol]-2′(1′H)-one]	8.84	132.8355	76.36
COc1ccc2c(c1)[C@]1(C[C@H]1c1ccc3c(Nc4nc(CC(C)(C)O)nc(N5CCOCC5)c4OC)n[nH]c3c1)C(=O)N2 [Example 93, (1R,2S)-2-(3-{[2-(2-hydroxy-2-methylpropyl)-5-methoxy-6-(morpholin-4-yl)pyrimidin-4-yl]amino}-1H-indazol-6-yl)-5′-methoxyspiro[cyclopropane-1,3′-indol]-2′(1′H)-one]	24.3	1733.361	1055.053
COc1ccc2c(c1)[C@]1(C[C@H]1c1ccc3c(Nc4cc(N5CCOCC5)nc(C(C)C)n4)n[nH]c3c1)C(=O)N2 [Example 102, (1R,2S)-5′-methoxy-2-(3-{[6-(morpholin-4-yl)-2-(propan-2-yl)pyrimidin-4-yl]amino}-1H-indazol-6-yl)spiro[cyclopropane-l,3′-indol]-2′(1′H)-one]	6.16	114.7355	74.7
COc1ccc2c(c1)[C@]1(C[C@H]1c1ccc3c(Nc4nc(N5CCOCC5)ncc4Cl)n[nH]c3c1)C(=O)N2 [Example 103, (1R,2S)-2-(3-{[5-chloro-2-(morpholin-4-yl)pyrimidin-4-yl]amino}-1H-indazol-6-yl)-5′-methozyspiro[cyclopropano-1,3′-indol]-2′(1′H)-one]	2.8	416.6667	977.1102
COc1ccc2c(c1)[C@]1(C[C@H]1c1ccc3c(Nc4nc(C5CNC5)cnc4OC)n[nH]c3c1)C(=O)N2 [Example 110, (1R,2S)-2-(3-{[6-(azetidin-3-yl)-3-methoxypyrazin-2-yl]amino}-1H-indazol-6-yl)-5′-methoxyspiro[cyclopropane-1,3′-indol]-2′(1′H)-one]	3.91	679.6315	232.1904
COc1ccc2c(c1)[C@]1(C[C@H]1c1ccc3c(Nc4cc(N5CC(O)C5)nc(C(C)C)n4)n[nH]c3c1)C(=O)N2 [Example 111, (1R,2S)-2-(3-{[6-(3-hydroxyazetidin-1-yi)-2-(propan-2,yl)pyrimidin-4-yl]amino}-1H-indazol-6-yl)-5′-inethoxyspiro[cyclopropane-1,3′-indol]-2′(1′H)-one]	1.53	234.7231	144.4951
COc1ccc2c(c1)[C@]1(C[C@H]1c1ccc3c(Nc4cc(C)nn4CC(F)F)n[nH]c3c1)C(=O)N2 [Example 112, (1R,2S)-2-(3-{[1-(2,2-difluoroethyl)-3-methyl-1H-pyrazol-5-yl]amino}-1H-indazol-6-yl)-5′-methoxyspiro[cyclopropane-1,3′-indol]-2′(1′H)-one]	23.7	197.5105	121.8987
COc1cnc(C)nc1Nc1n[nH]c2cc([C@@H]3C[C@@]34C(=O)N(C)c3ccccc34)ccc12 [Example 122, (1R,2S)-2-{3-[(5-methoxy-2-methylpyrimidin-4-yl)amino]-1H-indezol-6-yl}-1′-methylspiro[cyclopropane-1,3′-indol]-2′(1′H)-one]	73.1	11.1709	11.87
COc1cnc(C)nc1Nc1n[nH]c2cc([C@@H]3C[C@@]34C(=O)Nc3ccccc34)ccc12 [Example 124, (1R,2S)-2-{3-[(5-methoxy-2-methylpyrimidin-4-yl)amino]-1H-indazol-6-yl}spiro[cyclopropane-1,3′-indol]-2′(1′H)-one]	13.6	38.03	35.9
COc1cnc(C)nc1Nc1n[nH]c2cc([C@@H]3C[C@]34C(=O)Nc3ccc(C)cc34)ccc12 [Example 127, (1S,2S)-2-{3-[(5-methoxy-2-methylpyrimidin-4-yl)amino]-1H-indazol-6-yl}-5′-methylspiro[cyclopropane-1,3′-indol]-2′(1′H)-one]	2200	22.77	22.7686
COc1cnc(C)nc1Nc1n[nH]c2cc([C@@H]3C[C@@]34C(=O)Nc3cccc(F)c34)ccc12 [Example 129, (1R,2S)-4′-fluoro-2-{3-[(5-methoxy-2-methylpyrimidin-4-yl)amino]-1H-indazol-6-yl}spiro[cyclopropane-1,3′-indol]-2′(1′H)-one]	34.5	18.1054	17.1349
COc1cnc(C)nc1Nc1n[nH]c2cc([C@@H]3C[C@]34C(=O)Nc3cccc(F)c34)ccc12 [Example 130, (1S,2S)-4′-fluoro-2-{3-[(5-methoxy-2-methylpyrimidin-4-yl)amino]-1H-indazol-6-yl}spiro[cyclopropane-1,3′-indol]-2′(1′H)-one]	603	58.4811	60.1890
COc1cnc(C)nc1Nc1n[nH]c2cc([C@@H]3C[C@@]34C(=O)Nc3cc(F)ccc34)ccc12 [Example 131, (1R,2S)-6′-fluoro-2-{3-[(5-methoxy-2-methylpyrimidin-4-yl)amino]-1H-indazol-6-yl}spiro[cyclopropane-1,3′-indol]-2′(1′H)-one]	53.8	105.7084	40.8516
Cc1ncc(OC(F)F)c(Nc2n[nH]c3cc([C@@H]4C[C@@]45C(=O)Nc4ccc(F)cc45)ccc23)n1 [Example 135, (1R,2S)-2-(3-{[5-(difluoromethoxy)-2-methylpyrimidin-4-yl]amino}-1H-indazol-6-yl)-5′-fluorospiro[cyclopropane-1,3′-indol]-2′(1′H)-one]	70.8	28.3312	62.6112
COc1ccc2c(c1)[C@]1(C[C@H]1c1ccc3c(Nc4nc(C)ncc4OC(C)C)n[nH]c3c1)C(=O)N2 [Example 136, (1R,2S)-5′-methoxy-2-[3-({2-methyl-5-[(propan-2-yl)oxy]pyrimidin-4-yl}amino)-1H-indazol-6-yl]spiro[cyclopropane-1,3′-indol]-2′(1′H)-one]	19.4	2573.3401	979.4132
COc1cnc(C)nc1Nc1n[nH]c2cc([C@@H]3C[C@@]34C(=O)Nc3ccc(C(F)(F)F)cc34)ccc12 [Example 137, (1R,2S)-2-{3-[(5-methoxy-2-methylpyrimidin-4-yl)amino]-1H-indazol-6-yl}-5′-(trifluoromethyl)spiro[cyclopropane-1,3′-indol]-2′(1′H)-one]	97.2	62	72
COc1cnc(C)nc1Nc1n[nH]c2cc([C@@H]3C[C@@]34C(=O)Nc3ccc(OC(F)(F)F)cc34)ccc12 [Example 138, (1R,2S)-2-{3-[(5-methoxy-2-methylpyrimidin-4yl)amino]-1H-indazol-6-yl}-5′-(trifluoromethoxy)spiro[cyclopropane-1,3′-indol]-2′(1′H)-one]	27.3	70	36
COc1cnc(C)nc1Nc1n[nH]c2cc([C@@H]3C[C@]34C(=O)Nc3ccc(OC(F)(F)F)cc34)ccc12 [Example 139, (1S,2S)-2-{3-[(5-methoxy-2-methylpyrimidin-4-yl)amino]-1H-indazol-6-yl}-5′-(trifluoromethoxy)spiro[cyclopropane-1,3′-indol]-2′(1′H)-one]	3180	7.4	9.6
COc1ccc2c(c1)[C@]1(C[C@H]1c1ccc3c(Nc4nc(C5COC5)ncc4OC(F)F)n[nH]c3c1)C(=O)N2 [Example 141, (1R,2S)-2-(3-{[5-(difluoromethoxy)-2-(oxetan-3-yl)pyrimidin-4-yl]amino}-1H-indazol-6-yl)-5′-methoxyspiro[cyclopropane-1,3′-indol]-2′(1′H)-one]	13.1	327.4181	891.0891
